Among the data in patent publication US10717749B2, “Macrocyclic sulfondiimine compounds” (BAYER PHARMA AKTIENGESELLSCHAFT, priority 2015, dated 2020) are IC50 values, retold here.

Structures are written as SMILES.

The target in one test is T1, CDK2/CycE (Homo sapiens, UniProt P24941).
T1 construct: GST; purchased ProQinase GmbH (Freiburg, Germany); host or cells: insect cells (Sf9)
The test can be described thus: CDK2/CycE kinase assay (Method 2a, TR-FRET, 10 μM ATP). Type of test: biochemical. The text has this: 2a. CDK2/CycE Kinase Assay:
CDK2/CycE-inhibitory activity of compounds of the present invention was quantified employing the CDK2/CycE TR-FRET assay as described in the following paragraphs:
Recombinant fusion proteins of GST and human CDK2 and of GST and human CycE, expressed in insect cells (Sf9) and purified by Glutathion-Sepharose affinity chromatography, were purchased from ProQinase GmbH (Freiburg, Germany). As substrate for the kinase reaction biotinylated peptide biotin-Ttds-YISPLKSPYKISEG (C-terminus in amid form) was used which can be purchased e.g. from the company JERINI Peptide Technologies (Berlin, Germany).
For the assay 50 nl of a 100 fold concentrated solution of the test compound in DMSO was pipetted into a black low volume 384 well microtiter plate (Greiner Bio-One, Frickenhausen, Germany), 2 μl of a solution of CDK2/CycE in aqueous assay buffer [50 mM Tris/HCl pH 8.0, 10 mM MgCl2, 1.0 mM dithiothreitol, 0.1 mM sodium ortho-vanadate, 0.01% (v/v) Nonidet-P40 (Sigma)] were added and the mixture was incubated for 15 min at 22° C. to allow pre-binding of the test compounds to the enzyme before the start of the kinase reaction. […] The concentration of CDK2/CycE was adjusted depending of the activity of the enzyme lot and was chosen appropriate to have the assay in the linear range, typical concentrations were in the range of 130 ng/mL. The reaction was stopped by the addition of 5 μl of a solution of TR-FRET detection reagents (0.2 μM streptavidine-XL665 [Cisbio Bioassays, Codolet, France] and 1 nM anti-RB(pSer807/pSer811)-antibody from BD Pharmingen [#558389] and 1.2 nM LANCE EU-W1024 labeled anti-mouse IgG antibody [Perkin-Elmer, product no. AD0077]) in an aqueous EDTA-solution (100 mM EDTA, 0.2% (w/v) bovine serum albumin in 100 mM HEPES pH 7.5).
The resulting mixture was incubated 1 h at 22° C. to allow the formation of complex between the phosphorylated biotinylated peptide and the detection reagents. Subsequently the amount of phosphorylated substrate was evaluated by measurement of the resonance energy transfer from the Eu-chelate to the streptavidine-XL. Therefore, the fluorescence emissions at 620 nm and 665 nm after excitation at 350 nm was measured in a TR-FRET reader, e.g. a Rubystar (BMG Labtechnologies, Offenburg, Germany) or a Viewlux (Perkin-Elmer). The ratio of the emissions at 665 nm and at […] was taken as the measure for the amount of phosphorylated substrate. The data were normalised (enzyme reaction without inhibitor=0% inhibition, all other assay components but no enzyme=100% inhibition).
In general terms: Time-resolved FRET reads energy transfer from a long-lived donor to a nearby acceptor.

Another test deals with MOLM-13. Description: Proliferation assay, Cell Titer-Glo. The test is classed as cell-based. The conditions noted are these: Homo sapiens; MOLM-13, 72-hour exposure; read-out: Inhibition of MOLM-13 cell proliferation IC50. The protocol:
(§1) MOLM-13 human acute myeloid leukemia cells (DSMZ ACC 554) and A2780, human ovarian carcinoma cells (ECACC #93112519) were seeded at a density of 5,000 cells/well (MOLM-13), or 3,000 cells/well (A2780) in a 96-well multititer plate in 150 μL of growth medium supplemented 10% fetal calf serum. After 24 hours, cell viability of one plate (zero-point plate) was determined with the Cell Titer-Glo Luminescent Cell Viability Assay (Promega), whiletest compound was added to the wells of the other plates employing HP Dispenser (final concentrations in the range of 0.0001-10 μM and DMSO controls). Cell viability was assessed after 72-hour exposure with the Cell Titer-Glo Luminescent Cell Viability Assay (Promega). IC50 values (inhibitory concentration at 50% of maximal effect) were determined by means of a 4 parameter fit on measurement data which were normalized to vehicle (DMSO) treated cells (=100%) and measurement readings taken immediately before compound exposure (=0%).

The subject of a further test is A2780. Description: Proliferation assay, Cell Titer-Glo. Type of test: cell-based. As to conditions: Homo sapiens; A2780, 72-hour exposure; read-out: Inhibition of A2780 cell proliferation IC50. Here is the method:
as §1
(Cellular ATP, detected with luciferase, serves as a proxy for viable cell number.)

`CS(=N)(=N)Cc1cc2cc(c1)OCCCCOc1cc(F)ccc1-c1nc(ncc1F)N2` [Example 5, 16,20-difluoro-9-[(S-methylsulfonodiimidoyl)methyl]-2,3,4,5-tetrahydro-12H-13,17-(azeno)-11,7-(metheno)-1,6,12,14-benzodioxadiazacyclononadecine]: the IC50 was determined as 92.6 nM against CDK2/CycE, 8.2 nM in the test with MOLM-13 and 11.7 nM with A2780.

On to `CS(=N)(Cc1cc2nc(c1)OCCCOc1cc(F)ccc1-c1cc(ncc1F)N2)=NC#N` (racemic) [Example 3, (rac)-[{[15,19-difluoro-3,4-dihydro-2H,11H-10,6-(azeno)-12,16-(metheno)-1,5,11,13-benzodioxadiazacyclooctadecin-8-yl]methyl}(imino)methyl-λ^6-sulfanylidene]cyanamide], for which the IC50 came out at 6 nM on CDK2/CycE, 2 nM in the test with MOLM-13 and 2.6 nM in the test on A2780.

For the molecule `CS(=N)(Cc1cc2nc(c1)OCCCOc1cc(F)ccc1-c1cc(ncc1F)N2)=NCCCO` (racemic) [Example 2, (rac)-3-(2-{[15,19-difluoro-3,4-dihydro-2H,11H-10,6-(azeno)-12,16-(metheno)-1,5,11,13-benzodioxadiazacyclooctadecin-8-yl]methyl}-2-methyl-2λ^6-diazathia-1,2-dien-1-yl)propan-1-ol], the IC50 was 22.5 nM on CDK2/CycE, 5.3 nM in the test on MOLM-13 and 5.4 nM with A2780.

In the case of `CS(=N)(=N)Cc1cc2cc(c1)OCCCCOc1c(ccc(F)c1F)-c1nc(ncc1F)N2` [Example 6, 16,20,21-trifluoro-9-[(S-methylsulfonodiimidoyl)methyl]-2,3,4,5-tetrahydro-12H-13,17-(azeno)-11,7-(metheno)-1,6,12,14-benzodioxadiazacyclononadecine], the IC50 against CDK2/CycE was found to be 1430 nM; in the test on MOLM-13, 113 nM; in the test with A2780 it was 123 nM.

On to `CS(=N)(=N)Cc1cc2cc(c1)OCCCCOc1c(F)cccc1-c1nc(ncc1F)N2` [Example 7, 16,21-difluoro-9-[(S-methylsulfonodiimidoyl)methyl]-2,3,4,5-tetrahydro-12H-13,17-(azeno)-11,7-(metheno)-1,6,12,14-benzodioxadiazacyclononadecine], for which the IC50 at CDK2/CycE was found to be 1170 nM; in the test with MOLM-13, 126 nM; in the test with A2780 it was 125 nM.

Regarding `CS(=N)(=N)Cc1cc2nc(c1)OCCCOc1cc(F)ccc1-c1cc(ncc1F)N2` [Example 1, 15,19-difluoro-8-[(S-methylsulfonodiimidoyl)methyl]-3,4-dihydro-2H,11H-10,6-(azeno)-12,16-(metheno)-1,5,11,13-benzodioxadiazacyclooctadecine], the IC50 against CDK2/CycE is 16.4 nM; in the test on MOLM-13 it was 2.8 nM; in the test with A2780 it was 4 nM.

On to `CN=S(C)(=N)Cc1cc2cc(c1)OCCCCOc1cc(F)ccc1-c1nc(ncc1F)N2` (racemic) [Example 10, (rac)-9-[(N,S-dimethylsulfonodiimidoyl)methyl]-16,20-difluoro-2,3,4,5-tetrahydro-12H-13,17-(azeno)-11,7-(metheno)-1,6,12,14-benzodioxadiazacyclononadecine], for which the IC50 with A2780 worked out at 29 nM.

For `CS(=N)(=N)Cc1cc2nc(c1C#N)OCCCOc1cc(F)ccc1-c1cc(ncc1F)N2` [Example 8, 15,19-difluoro-8-[(S-methylsulfonodiimidoyl)methyl]-3,4-dihydro-2H,11H-10,6-(azeno)-12,16-(metheno)-1,5,11,13-benzodioxadiazacyclooctadecine-7-carbonitrile], the IC50 was 71.2 nM against CDK2/CycE, 4.2 nM with MOLM-13 and 18.1 nM in the test with A2780.

Regarding `CN=S(C)(=N)Cc1cc2nc(c1)OCCCOc1cc(F)ccc1-c1cc(ncc1F)N2` (racemic) [Example 4, (rac)-8-[(N,S-dimethylsulfonodiimidoyl)methyl]-15,19-difluoro-3,4-dihydro-2H,11H-10,6-(azeno)-12,16-(metheno)-1,5,11,13-benzodioxadiazacyclooctadecine], the IC50 at CDK2/CycE came out at 37.3 nM; in the test with MOLM-13, 4.7 nM; in the test on A2780 it was 11.7 nM.

For `CS(=N)(Cc1cc2cc(c1)OCCCCOc1cc(F)ccc1-c1nc(ncc1F)N2)=NC1CC1` (racemic) [Example 9, (rac)-9-[(N-cyclopropyl-S-methylsulfonodiimidoyl)methyl]-16,20-difluoro-2,3,4,5-tetrahydro-12H-13,17-(azeno)-11,7-(metheno)-1,6,12,14-benzodioxadiazacyclononadecine], the results for the IC50 against CDK2/CycE, in the test on MOLM-13 and with A2780 were 143 nM, 22.2 nM and 31.3 nM, respectively.
